Measured values as given in US8431563B2 (priority 2010, dated 2013).

What was measured:
[1] = target: T1, GKRP (Glucokinase Regulatory Protein) with human His-hepatic GK (Homo sapiens, UniProt Q14397); test: biochemical; conditions: 13C-glucose-6-phosphate formation; 280 nM GKRP (10×), 30 nM GK (5×); read-out: GK-GKRP EC50 (LC MS/MS-2)
T1 sequence (Q14397 1-625): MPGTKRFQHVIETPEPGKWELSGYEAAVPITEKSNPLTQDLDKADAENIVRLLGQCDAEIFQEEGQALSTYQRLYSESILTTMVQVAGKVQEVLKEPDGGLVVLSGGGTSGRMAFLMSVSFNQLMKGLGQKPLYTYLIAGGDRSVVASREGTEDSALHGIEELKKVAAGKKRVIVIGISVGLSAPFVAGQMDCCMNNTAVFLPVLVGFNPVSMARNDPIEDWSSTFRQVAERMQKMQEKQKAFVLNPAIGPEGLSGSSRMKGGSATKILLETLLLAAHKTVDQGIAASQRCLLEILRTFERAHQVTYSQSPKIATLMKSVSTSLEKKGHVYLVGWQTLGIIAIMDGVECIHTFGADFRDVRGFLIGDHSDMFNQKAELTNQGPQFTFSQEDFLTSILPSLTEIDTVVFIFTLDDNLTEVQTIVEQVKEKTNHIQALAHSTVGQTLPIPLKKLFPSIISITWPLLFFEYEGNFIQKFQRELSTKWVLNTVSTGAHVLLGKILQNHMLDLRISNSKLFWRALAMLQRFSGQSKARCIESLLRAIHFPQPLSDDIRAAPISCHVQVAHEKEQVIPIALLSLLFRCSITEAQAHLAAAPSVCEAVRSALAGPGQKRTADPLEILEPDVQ
In short: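 Human His-tagged hepatic GK (30 nM in the 5× working stock) in 50 mM Tris pH 7.5, 4 mM MgCl2, 6% DMSO with DTT, BSA and Brij-35. Enzyme was added after a 30 min step and reacted 30 min at room temperature. The reaction was stopped with acetonitrile and 13C-glucose-6-phosphate formed from 13C-glucose was quantified by LC MS/MS.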

[2] = target: T2, interaction between glucokinase (GK) and glucokinase regulatory protein (GKRP) (Homo sapiens, UniProt Q14397); test: biochemical; assay type: binding; conditions: avi-tagged GKRP, GK-fluorescein, AlphaScreen beads; read-out: GK-GKRP IC50 (Binding)
T2 sequence (Q14397 1-625): T1 sequence (Q14397 1-625)
In short: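 Avi-tagged human GKRP preincubated with compound for 20 min at room temperature, then 6 nM GK-fluorescein (concentration of added solution) introduced and incubated 2 h in the dark. Buffer: 20 mM Tris pH 7.5, 0.05% BSA, 1 mM DTT, 1 μM sorbitol-6-phosphate. Plate read on a fluorescence reader.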

Row | Compound | EC50 [1] | IC50 [2]
1 | CC(O)(c1ccc(N2CCN(S(=O)(=O)c3cccs3)C[C@@H]2CNC2COC2)cc1)C(F)(F)F (mixture of isomers) [Example 206, 1,1,1-trifluoro-2-(4-((2S)-2-((3-oxetanylamino)methyl)-4-(2-thiophenylsulfonyl)-1-piperazinyl)phenyl)-2-propanol] | 343 nM | 248 nM
2 | CC(O)(c1ccc(N2CCN(S(=O)(=O)c3cccs3)C[C@@H]2CN(C2COC2)S(C)(=O)=O)cc1)C(F)(F)F (mixture of isomers) [Example 207, N-3-oxetanyl-N-(((2R)-4-(2-thiophenylsulfonyl)-1-(4-(2,2,2-trifluoro-1-hydroxy-1-methylethyl)phenyl)-2-piperazinyl)methyl)methanesulfonamide] | 257 nM | 241 nM
3 | CN(C[C@H]1CN(S(=O)(=O)c2cccs2)CCN1c1ccc(C(C)(O)C(F)(F)F)cc1)S(C)(=O)=O (mixture of isomers) [Example 208, N-methyl-N-(((2S)-4-(2-thiophenylsulfonyl)-1-(4-(2,2,2-trifluoro-1-hydroxy-1-methylethyl)phenyl)-2-piperazinyl)methyl)methane sulfonamide] | 234 nM | 112 nM
4 | CC(C)N(C[C@H]1CN(S(=O)(=O)c2cccs2)CCN1c1ccc(C(C)(O)C(F)(F)F)cc1)S(=O)(=O)N(C)C (mixture of isomers) [Example 209, N,N-dimethyl-N′-(1-methylethyl)-N′-(((2R)-4-(2-thiophenylsulfonyl)-1-(4-(2,2,2-trifluoro-1-hydroxy-1-methylethyl)phenyl)-2-piperazinyl)methyl)sulfamide] | 23 nM | 7 nM
5 | CC(C)CS(=O)(=O)NC[C@H]1CN(S(=O)(=O)c2cccs2)CCN1c1ccc(C(C)(O)C(F)(F)F)cc1 (mixture of isomers) [Example 210, 2-methyl-N-(((2S)-4-(2-thiophenylsulfonyl)-1-(4-(2,2,2-trifluoro-1-hydroxy-1-methylethyl)phenyl)-2-piperazinyl)methyl)-1-propanesulfonamide] | 249 nM | 507 nM
6 | CC(C)CS(=O)(=O)N(C[C@H]1CN(S(=O)(=O)c2cccs2)CCN1c1ccc(C(C)(O)C(F)(F)F)cc1)c1ccccc1 (mixture of isomers) [Example 211, 2-methyl-N-phenyl-N-(((2R)-4-(2-thiophenylsulfonyl)-1-(4-(2,2,2-trifluoro-1-hydroxy-1-methylethyl)phenyl)-2-piperazinyl)methyl)-1-propanesulfonamide] | 20 nM | 6 nM
7 | CC(C)CN(C[C@H]1CN(S(=O)(=O)c2cccs2)CCN1c1ccc(C(C)(O)C(F)(F)F)cc1)S(=O)(=O)CC(F)(F)F (mixture of isomers) [Example 214, 2,2,2-trifluoro-N-(2-methylpropyl)-N-(((2S)-4-(2-thiophenylsulfonyl)-1-(4-(2,2,2-trifluoro-1-hydroxy-1-methylethyl)phenyl)-2-piperazinyl)methyl) ethanesulfonamide] | 247 nM | 238 nM
8 | CC(C)CN(C[C@H]1CN(S(=O)(=O)c2cccs2)CCN1c1ccc(C(C)(O)C(F)(F)F)cc1)S(=O)(=O)N(C)C (mixture of isomers) [Example 215, N,N-dimethyl-N′-(2-methylpropyl)-N′-(((2R)-4-(2-thiophenylsulfonyl)-1-(4-(2,2,2-trifluoro-1-hydroxy-1-methylethyl)phenyl)-2-piperazinyl)methyl)sulfamide] | 70 nM | 70 nM
9 | CC1(CN(C[C@H]2CN(S(=O)(=O)c3cccs3)CCN2c2ccc(C(C)(O)C(F)(F)F)cc2)S(C)(=O)=O)COC1 (mixture of isomers) [Example 216, N-((3-methyl-3-oxetanyl)methyl)-N-(((2S)-4-(2-thiophenylsulfonyl)-1-(4-(2,2,2-trifluoro-1-hydroxy-1-methylethyl)phenyl)-2-piperazinyl)methyl)methanesulfonamide] | 194 nM | 172 nM
10 | CN(C[C@H]1CN(S(=O)(=O)c2cccs2)CCN1c1ccc(C(C)(O)C(F)(F)F)cc1)S(=O)(=O)c1cccnc1 (mixture of isomers) [Example 217, N-methyl-N-(((2S)-4-(2-thiophenylsulfonyl)-1-(4-(2,2,2-trifluoro-1-hydroxy-1-methylethyl)phenyl)-2-piperazinyl)methyl)-3-pyridinesulfonamide] | 752 nM | 407 nM
11 | CC(O)(c1ccc(N2CCN(S(=O)(=O)c3cccs3)C[C@@H]2CN(CC2CCC2)S(C)(=O)=O)cc1)C(F)(F)F (mixture of isomers) [Example 218, N-(cyclobutylmethyl)-N-(((2S)-4-(2-thiophenylsulfonyl)-1-(4-(2,2,2-trifluoro-1-hydroxy-1-methylethyl)phenyl)-2-piperazinyl)methyl)methanesulfonamide] | 17 nM | 24 nM
12 | CC(O)(c1ccc(N2CCN(S(=O)(=O)c3cccs3)C[C@@H]2CSc2ccccc2F)cc1)C(F)(F)F (mixture of isomers) [Example 219, 1,1,1-trifluoro-2-(4-((2R)-2-(((2-fluorophenyl)sulfanyl)methyl)-4-(2-thiophenylsulfonyl)-1-piperazinyl)phenyl)-2-propanol] | 25 nM | 14 nM
13 | CC(O)(c1ccc(N2CCN(S(=O)(=O)c3cccs3)C[C@@H]2CN(Cc2ccccc2)S(C)(=O)=O)cc1)C(F)(F)F (mixture of isomers) [Example 220, N-benzyl-N-(((2S)-4-(2-thiophenylsulfonyl)-1-(4-(2,2,2-trifluoro-1-hydroxy-1-methylethyl)phenyl)-2-piperazinyl)methyl)methanesulfonamide] | 15 nM | 3 nM
14 | CC(O)(c1ccc(N2CCN(S(=O)(=O)c3cccs3)C[C@@H]2CN(Cc2cccnc2)S(C)(=O)=O)cc1)C(F)(F)F (mixture of isomers) [Example 221, N-(3-pyridinylmethyl)-N-(((2S)-4-(2-thiophenylsulfonyl)-1-(4-(2,2,2-trifluoro-1-hydroxy-1-methylethyl)phenyl)-2-piperazinyl)methyl)methanesulfonamide] | 41 nM | 13 nM
15 | CC(C)CS(=O)(=O)N(C[C@H]1CN(S(=O)(=O)c2cccs2)CCN1c1ccc(C(C)(O)C(F)(F)F)cc1)c1cccnc1 (mixture of isomers) [Example 223, 2-methyl-N-3-pyridinyl-N-(((2R)-4-(2-thiophenylsulfonyl)-1-(4-(2,2,2-trifluoro-1-hydroxy-1-methylethyl)phenyl)-2-piperazinyl)methyl)-1-propanesulfonamide] | 86 nM | 35 nM
16 | CC(=O)N(C[C@H]1CN(S(=O)(=O)c2cccs2)CCN1c1ccc(C(C)(O)C(F)(F)F)cc1)c1ccccc1 (mixture of isomers) [Example 224, N-phenyl-N-(((2S)-4-(2-thiophenylsulfonyl)-1-(4-(2,2,2-trifluoro-1-hydroxy-1-methylethyl)phenyl)-2-piperazinyl)methyl)acetamide] | 27 nM | 8 nM
17 | CC1(C)C(=O)NC(=O)N1C[C@H]1CN(S(=O)(=O)c2cccs2)CCN1c1ccc(C(C)(O)C(F)(F)F)cc1 (mixture of isomers) [Example 228, 5,5-dimethyl-1-(((2S)-4-(2-thiophenylsulfonyl)-1-(4-(2,2,2-trifluoro-1-hydroxy-1-methylethyl)phenyl)-2-piperazinyl)methyl)-2,4-imidazolidinedione] | 312 nM | 151 nM
18 | CC(O)(c1ccc(N2CCN(S(=O)(=O)c3cccs3)C[C@@H]2CN2CCS(=O)(=O)CC2)cc1)C(F)(F)F (mixture of isomers) [Example 85, 2-(4-((2S)-2-((1,1-dioxido-4-thiomorpholinyl)methyl)-4-(2-thiophenylsulfonyl)-1-piperazinyl)phenyl)-1,1,1-trifluoro-2-propanol] | 475 nM | 350 nM
19 | CC(O)(c1ccc(N2CCN(S(=O)(=O)c3ccc(N)s3)CC2)cc1)C(F)(F)F (racemic) [Example 90, 2-(4-(4-((5-amino-2-thiophenyl)sulfonyl)-1-piperazinyl)phenyl)-1,1,1-trifluoro-2-propanol] | 836 nM | 448 nM
20 | CC(O)(c1ccc(N2CCN(S(=O)(=O)c3ccc(N)nc3)C[C@@H]2CC2CCOCC2)cc1)C(F)(F)F (mixture of isomers) [Example 127, 2-(4-((2S)-4-((6-amino-3-pyridinyl)sulfonyl)-2-(tetrahydro-2H-pyran-4-ylmethyl)-1-piperazinyl)phenyl)-1,1,1-trifluoro-2-propanol] | 58 nM | 55 nM
